Experimental data: US20260364182A1, “PROTEOLYSIS-TARGETING CHIMERAS AGAINST THE PAPAIN-LIKE PROTEASE OF SARS-COV-2” (Tocris Cookson Limited, priority 2022, published 2026)

Tests used:
[1] = target: T1, SARS-CoV-2 PLpro (Severe acute respiratory syndrome coronavirus 2, UniProt P0DTD1); assay: IC50 inhibitory assay, fluorogenic substrate cleavage by PLpro; type: biochemical; settings: for IC50: SARS-CoV-2 PLpro 0.1 μM, substrate 10 μM, pH 8.1, 37 °C, 10 min preincubation; for inhibitory potency of PROTAC and parent ligand in binary IC50 experiment (in words): in vitro inhibitory assay, 20 mM HEPES, pH 8.1, 1% DMSO, PROTAC compared with parent ligand
T1 construct: The papain-like protease domain (PLpro) of SARS-CoV-2 (SCoV2)
Protocol: The inhibitory activities of compounds against SARS-CoV-2 PLpro were determined in a reaction buffer containing 20 mM HEPES, 40 mM NaCl, 5% glycerol, 2 mM DTT (freshly added before the measurements), pH 8.1, at 37 °C. A fluorescent substrate of SARS-CoV-2 PLpro (Z-Arg-leu-Arg-Gly-Gly-[…]AMC; Biosyntan, Berlin) was used, and the fluorescence signal of the cleaved substrate was monitored using a Tecan Spark® fluorescence spectrophotometer at an […] wavelength of 460/360 nm. SARS-CoV-2 PLpro (10 μL per well) was pipetted into a 96-well plate together with reaction buffer reaction buffer (50 μL per well, final enzyme concentration: 0.1 μM). Compounds (10 μL per well) were added at varying concentrations, and plates incubated at 37 °C for 10 mins. Finally, the reaction was initiated by adding 30 μL of the substrate (final concentration: 10 μM) dissolved in the reaction buffer.
FIG. 1: PROTAC and parent ligand for SARS-CoV-2 PLpro in a binary IC50 experiment. C10778A PROTAC (top left), comprising a SARS-CoV-2 PLpro targeting ligand C10778B (bottom left) connected to thalidomide via a C3 alkyl linker. IC50 values have been determined in an in vitro inhibitory binding assay whereby the fluorescence signal resulting from cleavage of a fluorogenic substrate by PLpro is measured. Inhibition of PLpro is associated with reduced cleavage of the fluorogenic substrate. […] Assay conditions: experiments were performed in 20 mM HEPES buffer containing 40 mM NaCl 5% glycerol, 2 mM DTT at pH 8.1. A fluorogenic substrate for PLpro (Z-Arg-leu-Arg-Gly-Gly-AMC) was used to determine the inhibition rate of compounds. Final DMSO concentration in each reaction was 1%. Measurements were performed in triplicate.

[2] = tested on: SARS-CoV-2; assay: Antiviral assay in infected Vero E6 cells (ATP quantification, Cell Titer Glo); settings: Vero E6 cells, MOI 0.05, 72 h; for inhibition at 10 µM / inhibition at 50 µM: Severe acute respiratory syndrome coronavirus 2, Vero C1008, 72 h; for inhibition at 10 µM: read-out: Antiviral Activity, 10 uM (cell viability assay), 10 uM; for inhibition at 50 µM: read-out: Antiviral Activity, 50 uM (cell viability assay), 50 uM; for Antiviral Activity, 10 uM (cell viability assay): 4320 min
Protocol: Vero E6 cells (2×10^4/well) were seeded in 96 well plates one day before the experiment. Pre-treatment, the medium was removed and compounds were added at concentrations varying from 0.1-100 μM. After 24 h incubation, the medium was removed and cells were infected with MOI 0.05 SARS-CoV-2 SARS-CoV2/ZG/297-20. After 1 h infection, the viruses were removed and the same concentration of compounds were added back into the cells. After 72 h incubation at 37 °C, EC50 measurements were made using ATP quantification (Cell Titer Glo).

Row | Compound | IC50 [1] | inhibition at 10 µM [2] | inhibition at 50 µM [2] | Antiviral Activity, 10 uM (cell viability assay) [2] | inhibitory potency of PROTAC and parent ligand in binary IC50 experiment (in words) [1] | Antiviral Activity, 50 uM (cell viability assay) ([2]; 50 uM)
1 | Cc1ccc(NC(=O)CCNc2cccc3c2C(=O)N(C2CCC(=O)NC2=O)C3=O)cc1C(=O)N[C@H](C)c1cccc2ccccc12 (stereo in doubt) [TS140] | > 25 µM | < 0% | < 0% |  |  | 
2 | Cc1ccc(NC(=O)CCOCCNc2ccc3c4c(cccc24)C(=O)N(C2CCC(=O)NC2=O)C3=O)cc1C(=O)N[C@H](C)c1cccc2ccccc12 (stereo in doubt) [TS181] |  |  | < 0% | E (<0% = E) |  | 
3 | Cc1ccc(NC(=O)CCCCCOc2cc(-c3scnc3C)ccc2CNC(=O)[C@@H]2C[C@@H](O)CN2C(=O)[C@@H](NC(=O)C2(F)CC2)C(C)(C)C)cc1C(=O)N[C@H](C)c1cccc2ccccc12 (stereo in doubt) [TS291] | > 25 µM | < 0% | < 25% |  |  | 
4 | Cc1ccc(NC2CCNCC2)cc1C(=O)N[C@H](C)c1cccc(-c2ccc(CNC(=O)CCCOc3cccc4c3C(=O)N(C3CCC(=O)NC3=O)C4=O)s2)c1 (stereo partly drawn) [Compound C10778A, N-((1R)-1-(3-(5-((4-((2-(2,6-Dioxopiperidin-3-yl)-1,3-dioxoisoindolin-4-yl)oxy)butanamido)methyl)thiophen-2-yl)phenyl)ethyl)-2-methyl-5-(piperidin-4-ylamino)benzamide] | < 1 µM |  |  |  | retains nM activity for PLpro, similar to the parent compound | 
5 | CC(=O)NCc1ccc(-c2cccc([C@@H](C)NC(=O)c3cc(NC4CCNCC4)ccc3C)c2)s1 [Compound C10778B, (R)—N-(1-(3-(5-(Acetamidomethyl)thiophen-2-yl)phenyl)ethyl)-2-methyl-5-(piperidin-4-ylamino)benzamide, reference compound] |  |  |  |  | nM activity for PLpro | 
6 | Cc1ccc(NC2CCNCC2)cc1C(=O)N[C@H](C)c1cccc(-c2ccc(CNC(=O)CCCCCOc3cccc4c3C(=O)N(C3CCC(=O)NC3=O)C4=O)s2)c1 (stereo partly drawn) [Compound C10778C] | < 10 µM | < 0% | < 0% |  |  | 
7 | Cc1ccc(NC2CCNCC2)cc1C(=O)N[C@H](C)c1cccc(-c2ccc(CNC(=O)CCCCCNc3ccc4c(c3)C(=O)N(C3CCC(=O)NC3=O)C4=O)s2)c1 (stereo partly drawn) [Compound C10778D] | < 1 µM | < 0% | < 0% |  |  | 
8 | Cc1ccc(NC2CCNCC2)cc1C(=O)N[C@H](C)c1cccc(-c2ccc(CNC(=O)CCCNc3ccc4c(c3)C(=O)N(C3CCC(=O)NC3=O)C4=O)s2)c1 (stereo partly drawn) [Compound C10778E] | < 1 µM | < 0% | < 0% |  |  | 
9 | Cc1ccc(NC2CCNCC2)cc1C(=O)N[C@H](C)c1cccc(-c2ccc(CNC(=O)CCCCNC(=O)COc3ccc(C4CCC(=O)NC4=O)cc3)s2)c1 (stereo partly drawn) [Compound C10778F] | < 10 µM | < 25% | < 25% |  |  | 
10 | Cc1ccc(NC2CCNCC2)cc1C(=O)N[C@H](C)c1cccc(-c2ccc(CNC(=O)CCCCCNC(=O)COc3ccc(C4CCC(=O)NC4=O)cc3)s2)c1 (stereo partly drawn) [Compound C10778G] | < 1 µM | < 25% | < 25% |  |  | 
11 | Cc1ccc(NC(=O)CCOCCNc2ccc3c4c(cccc24)C(=O)N(C2CCC(=O)NC2=O)C3=O)cc1C(=O)N[C@H](C)c1cccc2ccccc12 (stereo partly drawn) [Compound C10778H] | > 25 µM |  |  | D (<25% = D) |  | E (<0% = E)
12 | Cc1ccc(NC2CCNCC2)cc1C(=O)N[C@H](C)c1cccc(-c2ccc(CNC(=O)CCCNc3cccc4c3C(=O)N(C3CCC(=O)NC3=O)C4=O)s2)c1 (stereo partly drawn) [Compound C10778I] | < 1 µM | < 0% | < 0% |  |  | 
13 | Cc1ccc(NC(=O)CCCCCNc2cccc3c2CN(C2CCC(=O)NC2=O)C3=O)cc1C(=O)N[C@H](C)c1cccc2ccccc12 (stereo partly drawn) [TS121] | 10 to 25 µM | < 0% | < 0% |  |  | 
14 | Cc1ccc(NC(=O)CCCCNc2cccc3c2CN(C2CCC(=O)NC2=O)C3=O)cc1C(=O)N[C@H](C)c1cccc2ccccc12 (stereo partly drawn) [TS124] | < 10 µM | < 0% | < 25% |  |  | 
15 | Cc1ccc(NC(=O)CCOCCOCCOCCNc2cccc3c2C(=O)N(C2CCC(=O)NC2=O)C3=O)cc1C(=O)N[C@H](C)c1cccc2ccccc12 (stereo partly drawn) [TS128] | < 10 µM | < 0% | < 0% |  |  | 
16 | Cc1ccc(NC(=O)CCOCCOCCOCCOCCNc2cccc3c2C(=O)N(C2CCC(=O)NC2=O)C3=O)cc1C(=O)N[C@H](C)c1cccc2ccccc12 (stereo partly drawn) [TS129] | 10 to 25 µM | < 0% | < 0% |  |  | 
17 | Cc1ccc(NC(=O)CCOCCOCCNc2cccc3c2C(=O)N(C2CCC(=O)NC2=O)C3=O)cc1C(=O)N[C@H](C)c1cccc2ccccc12 (stereo partly drawn) [TS139] | < 10 µM | < 0% | < 25% |  |  | 
18 | Cc1ccc(NC(=O)CCOCCNc2cccc3c2C(=O)N(C2CCC(=O)NC2=O)C3=O)cc1C(=O)N[C@H](C)c1cccc2ccccc12 (stereo partly drawn) [TS144] | 10 to 25 µM | < 0% | < 0% |  |  | 
19 | Cc1ccc(NC(=O)CCCNc2cccc3c2C(=O)N(C2CCC(=O)NC2=O)C3=O)cc1C(=O)N[C@H](C)c1cccc2ccccc12 (stereo partly drawn) [TS145] | < 10 µM |  |  |  |  | 
20 | Cc1ccc(NC(=O)CCOCCOCCNc2ccc3c4c(cccc24)C(=O)N(C2CCC(=O)NC2=O)C3=O)cc1C(=O)N[C@H](C)c1cccc2ccccc12 (stereo partly drawn) [TS170] | < 10 µM | < 0% | < 25% |  |  | 
21 | Cc1ccc(NC(=O)CCOCCOCCOCCNc2ccc3c4c(cccc24)C(=O)N(C2CCC(=O)NC2=O)C3=O)cc1C(=O)N[C@H](C)c1cccc2ccccc12 (stereo partly drawn) [TS182] | < 10 µM | < 0% | < 25% |  |  | 
22 | Cc1ccc(NC(=O)CCCCOc2cc3c4c(cccc4c2)C(=O)N(C2CCC(=O)NC2=O)C3=O)cc1C(=O)N[C@H](C)c1cccc2ccccc12 (stereo partly drawn) [TS251] | 10 to 25 µM | < 0% | < 25% |  |  | 
23 | Cc1ccc(NC(=O)CCCCNc2cccc3c2C(=O)N(C2CCC(=O)NC2=O)C3=O)cc1C(=O)N[C@H](C)c1cccc2ccccc12 (stereo partly drawn) [TS267] | < 10 µM | < 0% | < 0% |  |  | 
24 | Cc1ccc(NC(=O)CCCCOc2cc(-c3scnc3C)ccc2CNC(=O)[C@@H]2C[C@@H](O)CN2C(=O)[C@@H](NC(=O)C2(F)CC2)C(C)(C)C)cc1C(=O)N[C@H](C)c1cccc2ccccc12 [TS290] | > 25 µM | < 0% | < 25% |  |  | 
25 | Cc1ccc(NC(=O)CCCCC(=O)N[C@H](C(=O)N2C[C@H](O)C[C@H]2C(=O)NCc2ccc(-c3scnc3C)cc2)C(C)(C)C)cc1C(=O)N[C@H](C)c1cccc2ccccc12 [TS309] | 10 to 25 µM | < 0% | < 0% |  |  | 
26 | Cc1ccc(NC(=O)CCCCCCC(=O)N[C@H](C(=O)N2C[C@H](O)C[C@H]2C(=O)NCc2ccc(-c3scnc3C)cc2)C(C)(C)C)cc1C(=O)N[C@H](C)c1cccc2ccccc12 [TS310] | > 25 µM | < 0% | < 0% |  |  | 
27 | Cc1ccc(NC(=O)CCCCCCCCC(=O)N[C@H](C(=O)N2C[C@H](O)C[C@H]2C(=O)NCc2ccc(-c3scnc3C)cc2)C(C)(C)C)cc1C(=O)N[C@H](C)c1cccc2ccccc12 [TS311] | > 25 µM | < 0% | < 0% |  |  | 
28 | C[C@H](c1cccc2ccccc12)N1CCC(C(=O)NCc2cc(F)cc(NC(=O)N3CCN(CCOCCOCCOc4cccc5c4C(=O)N(C4CCC(=O)NC4=O)C5=O)CC3)c2)CC1 (stereo partly drawn) [TS420] | < 10 µM | < 25% | < 0% |  |  | 
29 | C[C@H](c1cccc2ccccc12)N1CCC(C(=O)NCc2cc(F)cc(NC(=O)N3CCN(CCOCCOCCOCCOc4cccc5c4C(=O)N(C4CCC(=O)NC4=O)C5=O)CC3)c2)CC1 (stereo partly drawn) [TS423] | < 10 µM | < 25% | < 0% |  |  | 
30 | C[C@H](c1cccc2ccccc12)N1CCC(C(=O)NCc2cc(F)cc(NC(=O)N3CCN(CCOCCOc4cccc5c4C(=O)N(C4CCC(=O)NC4=O)C5=O)CC3)c2)CC1 (stereo partly drawn) [TS424] | < 10 µM | < 0% | < 0% |  |  | 
